{"source": "patent US8822430B2", "about": "(Gilead Sciences, Inc., priority 2009, dated 2014)"}
{"tested_on": "HCV 1b RLuc cells (dicistronic genotype 1b Con1 replicon)", "assay": "Renilla luciferase (RLuc)-based HCV replicon reporter assay", "type": "cell-based, HCV genotype 1b", "conditions": "Hepatitis C virus, 72 h, HCV 1b RLuc replicon, 72 hours; read-out: Activity (antiviral potency [EC50])", "protocol": "Antiviral potency (EC50) was determined using a Renilla luciferase (RLuc)-based HCV replicon reporter assay. To perform the assay, HCV 1b RLuc cells (harboring a dicistronic genotype 1b Con1 replicon that encodes a RLuc reporter), or HCV 1a RLuc cells (harboring a dicistronic genotype 1a H77 replicon that encodes a RLuc reporter), were dispensed into 384-well plates. Compounds were re-suspended in DMSO at a concentration of 10 mM and serially diluted in DMSO using an automated pipeting instrument. Serially diluted compounds were mixed with cell culture media and added to the seeded cells. DMSO was used as a negative (solvent) control, and the protease inhibitor ITMN-191 was included at a concentration >100×EC50 as a positive control. 72 hours later, cells were lysed and Renilla luciferase activity quantified as recommended by the manufacturer (Promega-Madison, Wis.). Non-linear regression was performed to calculate EC50 values.\nBiological data (antiviral potency [EC50] was determined using a Renilla luciferase (RLuc)-based HCV replicon reporter assay—HCV 1b RLuc) for representative compounds of the invention is provided in the following table. These compounds can be prepared using procedures similar to those described above.", "units": {"EC50": "nM"}}
{"smiles": "COC(=O)N[C@H](C(=O)N1CCC[C@H]1c1ncc(-c2ccc(-c3ccc(-c4cnc([C@@H]5CN(S(C)(=O)=O)CN5C(=O)[C@@H](NC(=O)OC)C(C)C)[nH]4)cc3)cc2)[nH]1)C(C)C", "EC50": 0.0383}
{"smiles": "COC(=O)N[C@H](C(=O)N1CCC[C@H]1C(=O)Nc1cccc(-c2ccc(-c3cnc([C@@H]4CCCN4C(=O)[C@@H](NC(=O)OC)C(C)C)[nH]3)cc2)c1)C(C)C", "EC50": 0.118}
{"smiles": "COC(=O)N[C@H](C(=O)N1CCC[C@H]1c1ncc(-c2ccc(-c3ccc4nc([C@@H]5CCCN5C(=O)[C@@H](NC(=O)OC)C(C)C)[nH]c4c3)cc2)[nH]1)C(C)C", "EC50": 0.0372}
{"smiles": "COC(=O)N[C@H](C(=O)N1CCC[C@H]1C(=O)Nc1ccc(-c2ccc(-c3cnc([C@@H]4CCCN4C(=O)[C@@H](NC(=O)OC)C(C)C)[nH]3)cc2)cc1)C(C)C", "EC50": 0.124}
{"smiles": "COC(=O)N[C@H](C(=O)N1CCC[C@H]1c1ncc(-c2ccc3c(c2)sc2cc(-c4ccc5nc([C@@H]6[C@H]7CC[C@H](C7)N6C(=O)[C@@H](NC(=O)OC)C(C)C)[nH]c5c4)ccc23)[nH]1)C(C)C", "EC50": 0.0037}
{"smiles": "COC(=O)N[C@@H](C)C(=O)N1CCC[C@H]1c1ncc(-c2ccc3cc(-c4ccc5cc(-c6cnc([C@@H]7[C@H]8CC[C@H](C8)N7C(=O)[C@H](C)NC(=O)OC)[nH]6)ccc5c4)ccc3c2)[nH]1", "EC50": 2.61}
{"smiles": "COC(=O)N[C@H](C(=O)N1CCC[C@H]1c1ncc(-c2ccc3cc(C#Cc4ccc5nc([C@@H]6[C@H]7CC[C@H](C7)N6C(=O)[C@@H](NC(=O)OC)C(C)C)[nH]c5c4)ccc3c2)[nH]1)C(C)C", "EC50": 0.0195}
{"smiles": "COC(=O)N[C@H](C(=O)N1CCC[C@H]1c1ncc(-c2ccc3cc(-c4ccc(-c5cnc([C@@H]6C[C@H](C#N)CN6C(=O)[C@@H](NC(=O)OC)C(C)C)[nH]5)cc4)ccc3c2)[nH]1)C(C)C", "EC50": 0.0067}
{"smiles": "COC(=O)N[C@H](C(=O)N1CCC[C@H]1c1ncc(-c2ccc(-c3ccc4cc(-c5ccc6nc([C@@H]7[C@H]8CC[C@H](C8)N7C(=O)[C@@H](NC(=O)OC)C(C)C)[nH]c6c5)ccc4c3)cc2)[nH]1)C(C)C", "EC50": 0.0898}
{"smiles": "COC(=O)N[C@H](C(=O)N1CCC[C@H]1c1ncc(-c2ccc3c(c2)C(F)(F)c2cc(-c4ccc5nc([C@@H]6[C@H]7CC[C@H](C7)N6C(=O)[C@@H](NC(=O)OC)C(C)C)[nH]c5c4)ccc2-3)[nH]1)C(C)C", "EC50": 0.0029}
{"smiles": "COC(=O)N[C@@H](C)C(=O)N1[C@@H]2CC[C@@H](C2)[C@H]1c1ncc(-c2ccc3cc(-c4ccc(-c5cnc([C@@H]6CCCN6C(=O)[C@@H](NC(=O)OC)C(C)C)[nH]5)cc4)ccc3c2)[nH]1", "EC50": 0.016}
{"smiles": "COC(=O)N[C@H](C(=O)N1CCC[C@H]1c1ncc(-c2ccc3c(c2)CCc2cc(-c4ccc5nc([C@@H]6[C@H]7CC[C@H](C7)N6C(=O)[C@@H](NC(=O)OC)C(C)C)[nH]c5c4)ccc2-3)[nH]1)C(C)C", "EC50": 0.0054}
{"smiles": "COC(=O)N[C@@H](C)C(=O)N1CCC[C@H]1c1ncc(-c2ccc3c(c2)CCc2cc(-c4cnc([C@@H]5[C@H]6CC[C@H](C6)N5C(=O)[C@H](C)NC(=O)OC)[nH]4)ccc2-3)[nH]1", "EC50": 0.0368}
{"smiles": "COC(=O)N[C@@H](C)C(=O)N1[C@@H]2CC[C@@H](C2)[C@H]1c1ncc(-c2ccc3c(c2)CCc2cc(-c4cnc([C@@H]5CCCN5C(=O)[C@@H](NC(=O)OC)C(C)C)[nH]4)ccc2-3)[nH]1", "EC50": 0.0126}
{"smiles": "COC(=O)N[C@H](C(=O)N1CCC[C@H]1c1ncc(-c2ccc3cc(-c4ccc5cc(-c6cnc([C@@H]7[C@H]8CC[C@H](C8)N7C(=O)[C@@H](NC(=O)OC)C(C)C)[nH]6)ccc5c4)ccc3c2)[nH]1)C(C)C", "EC50": 0.28}
{"smiles": "COC(=O)N[C@@H](C)C(=O)N1[C@@H]2CC[C@@H](C2)[C@H]1c1ncc(-c2ccc3cc(-c4ccc5cc(-c6cnc([C@@H]7CCCN7C(=O)[C@@H](NC(=O)OC)C(C)C)[nH]6)ccc5c4)ccc3c2)[nH]1", "EC50": 1.17}
{"smiles": "COC(=O)N[C@@H](C)C(=O)N1CCC[C@H]1c1ncc(-c2ccc3c(c2)sc2cc(-c4cnc([C@@H]5[C@H]6CC[C@H](C6)N5C(=O)[C@H](C)NC(=O)OC)[nH]4)ccc23)[nH]1", "EC50": 0.0185}
{"smiles": "COC(=O)N[C@@H](C)C(=O)N1CCC[C@H]1c1ncc(-c2ccc3cc(-c4ccc5cc(-c6cnc([C@@H]7[C@H]8CC[C@H](C8)N7C(=O)[C@@H](NC(=O)OC)C(C)C)[nH]6)ccc5c4)ccc3c2)[nH]1", "EC50": 1.15}
{"smiles": "COC(=O)N[C@@H](CC#N)C(=O)N1[C@@H]2CC[C@@H](C2)[C@H]1c1ncc(-c2ccc3cc(-c4ccc(-c5cnc([C@@H]6CCCN6C(=O)[C@@H](NC(=O)OC)C(C)C)[nH]5)cc4)ccc3c2)[nH]1", "EC50": 0.013}
{"smiles": "COC(=O)N[C@H](C(=O)N1CCC[C@H]1c1ncc(-c2ccc(-c3ccc4cc(-c5cnc([C@@H]6[C@H]7CC[C@H](C7)N6C(=O)[C@@H](NC(=O)OC)C(C)C)[nH]5)ccc4c3)cc2)[nH]1)C(C)C", "EC50": 0.011}
{"smiles": "COC(=O)N[C@@H](C)C(=O)N1CCC[C@H]1c1ncc(-c2ccc(-c3ccc4cc(-c5cnc([C@@H]6[C@H]7CC[C@H](C7)N6C(=O)[C@@H](NC(=O)OC)C(C)C)[nH]5)ccc4c3)cc2)[nH]1", "EC50": 0.034}
{"smiles": "COC(=O)N[C@H](C(=O)N1CCC[C@H]1c1ncc(-c2ccc(C#Cc3ccc(-c4cnc([C@@H]5[C@H]6CC[C@H](C6)N5C(=O)[C@@H](NC(=O)OC)C(C)C)[nH]4)cc3)cc2)[nH]1)C(C)C", "EC50": 0.073}
{"smiles": "COC(=O)N[C@H](C(=O)N1CCC[C@H]1c1ncc(-c2ccc3cc(-c4ccc(-c5cnc([C@@H]6[C@H]7CC[C@H](C7)N6C(=O)[C@@H](NC(=O)OC)C(C)C)[nH]5)cc4)ccc3c2)[nH]1)C(C)C", "EC50": 0.006}
{"smiles": "COC(=O)N[C@H](C(=O)N1CCC[C@H]1c1ncc(-c2ccc3cc(-c4ccc(-c5ccc6nc([C@@H]7[C@H]8CC[C@H](C8)N7C(=O)[C@@H](NC(=O)OC)C(C)C)[nH]c6c5)cc4)ccc3c2)[nH]1)C(C)C", "EC50": 0.077}
{"smiles": "COC(=O)N[C@@H](C)C(=O)N1CCC[C@H]1c1ncc(-c2ccc3c(c2)sc2cc(-c4ccc5nc([C@@H]6[C@H]7CC[C@H](C7)N6C(=O)[C@H](C)NC(=O)OC)[nH]c5c4)ccc23)[nH]1", "EC50": 0.075}
{"smiles": "CCC(=O)N[C@H](C(=O)N1CC2(CC2)C[C@H]1c1ncc(-c2ccc(-c3ccc(-c4cnc([C@@H]5CCCN5C(=O)[C@@H](NC(=O)OC)C(C)C)[nH]4)cc3)cc2)[nH]1)C(C)C", "EC50": 0.013}
{"smiles": "COC(=O)N[C@H](C(=O)N1C[C@@H](C#N)C[C@H]1c1ncc(-c2ccc(C#Cc3ccc(-c4cnc([C@@H]5CC(F)(F)CN5C(=O)[C@@H](NC(=O)OC)C(C)C)[nH]4)cc3)cc2)[nH]1)C(C)C", "EC50": 0.018}
{"smiles": "COC(=O)N[C@H](C(=O)N1CCC[C@H]1c1nc2ccc(-c3cc4cc5sc(-c6ccc7nc([C@@H]8CCCN8C(=O)[C@@H](NC(=O)OC)C(C)C)[nH]c7c6)cc5cc4s3)cc2[nH]1)C(C)C", "EC50": 0.014}
{"smiles": "COC(=O)N[C@H](C(=O)N1C[C@@H](C#N)C[C@H]1c1ncc(-c2ccc(C#Cc3ccc(-c4cnc([C@@H]5CC6(CC6)CN5C(=O)[C@@H](NC(=O)OC)C(C)C)[nH]4)cc3)cc2)[nH]1)C(C)C", "EC50": 0.0149}
{"smiles": "COC(=O)N[C@H](C(=O)N1CC2(CC2)C[C@H]1c1ncc(-c2ccc(-c3ccc(-c4ccc5nc([C@@H]6[C@H]7CC[C@H](C7)N6C(=O)[C@@H](NC(=O)OC)C(C)C)[nH]c5c4)cc3)cc2)[nH]1)C(C)C", "EC50": 0.0058}
{"smiles": "COC(=O)N[C@H](C(=O)N1C[C@@H](C#N)C[C@H]1c1ncc(-c2ccc(-c3ccc4cc(-c5cnc([C@@H]6CC7(CC7)CN6C(=O)[C@@H](NC(=O)OC)C(C)C)[nH]5)ccc4c3)cc2)[nH]1)C(C)C", "EC50": 0.0069}
{"smiles": "COC(=O)N[C@H](C(=O)N1C[C@@H](C#N)C[C@H]1c1ncc(-c2ccc3c(c2)C(F)(F)c2cc(-c4ccc5nc([C@@H]6[C@H]7CC[C@H](C7)N6C(=O)[C@@H](NC(=O)OC)C(C)C)[nH]c5c4)ccc2-3)[nH]1)C(C)C", "EC50": 0.0059}
{"smiles": "COC(=O)N[C@@H](C)C(=O)N1[C@@H]2CC[C@@H](C2)[C@H]1c1nc2ccc(-c3ccc4c(c3)C(F)(F)c3cc(-c5cnc([C@@H]6CC7(CC7)CN6C(=O)[C@@H](NC(=O)OC)C(C)C)[nH]5)ccc3-4)cc2[nH]1", "EC50": 0.0036}
{"smiles": "COC(=O)N[C@H](C(=O)N1CC2(CC2)C[C@H]1c1ncc(-c2ccc3c(c2)C(F)(F)c2cc(-c4ccc5nc([C@@H]6[C@H]7CC[C@H](C7)N6C(=O)[C@@H](NC(=O)OC)C(C)C)[nH]c5c4)ccc2-3)[nH]1)C(C)C", "EC50": 0.0045}
{"smiles": "COC(=O)N[C@H](C(=O)N1CC2(CC2)C[C@H]1c1ncc(-c2ccc3cc(-c4ccc(-c5cnc([C@@H]6[C@H]7CC[C@H](C7)N6C(=O)[C@@H](NC(=O)OC)C(C)C)[nH]5)cc4)ccc3c2)[nH]1)C(C)C", "EC50": 0.0067}
{"smiles": "COC(=O)N[C@@H](CCS(C)(=O)=O)C(=O)N1[C@@H]2CC[C@@H](C2)[C@H]1c1nc2ccc(-c3ccc4c(c3)C(F)(F)c3cc(-c5cnc([C@@H]6CC7(CC7)CN6C(=O)[C@@H](NC(=O)OC)C(C)C)[nH]5)ccc3-4)cc2[nH]1", "EC50": 0.0218}
{"smiles": "COC(=O)N[C@H](C(=O)N1C[C@@H](C#N)C[C@H]1c1ncc(-c2ccc3c(c2)C(F)(F)c2cc(-c4ccc5nc([C@@H]6CC7(CC7)CN6C(=O)[C@@H](NC(=O)OC)C(C)C)[nH]c5c4)ccc2-3)[nH]1)C(C)C", "EC50": 0.0064}
{"smiles": "COC(=O)N[C@@H](CCC#N)C(=O)N1[C@@H]2CC[C@@H](C2)[C@H]1c1nc2ccc(-c3ccc4c(c3)C(F)(F)c3cc(-c5cnc([C@@H]6CC7(CC7)CN6C(=O)[C@@H](NC(=O)OC)C(C)C)[nH]5)ccc3-4)cc2[nH]1", "EC50": 0.006}
